Data published in patent US11673889B2, “Substituted imidazo[4,5-c][1,8]naphthyridines as phosphodiesterase inhibitors” (Nanjing Zhengxiang Pharmaceuticals Co., Ltd., priority 2019, dated 2023).

How the values were obtained:
human soluble ENPP1 [1] = target: T1, human soluble ENPP1 (Homo sapiens, UniProt P22413); assay: ENPP1 activity assay using p-Nitrophenyl-5′-TMP as a substrate; type: biochemical
T1 construct: 20 ng of human soluble ENPP1
T1 sequence (P22413 103-925 limits assumed): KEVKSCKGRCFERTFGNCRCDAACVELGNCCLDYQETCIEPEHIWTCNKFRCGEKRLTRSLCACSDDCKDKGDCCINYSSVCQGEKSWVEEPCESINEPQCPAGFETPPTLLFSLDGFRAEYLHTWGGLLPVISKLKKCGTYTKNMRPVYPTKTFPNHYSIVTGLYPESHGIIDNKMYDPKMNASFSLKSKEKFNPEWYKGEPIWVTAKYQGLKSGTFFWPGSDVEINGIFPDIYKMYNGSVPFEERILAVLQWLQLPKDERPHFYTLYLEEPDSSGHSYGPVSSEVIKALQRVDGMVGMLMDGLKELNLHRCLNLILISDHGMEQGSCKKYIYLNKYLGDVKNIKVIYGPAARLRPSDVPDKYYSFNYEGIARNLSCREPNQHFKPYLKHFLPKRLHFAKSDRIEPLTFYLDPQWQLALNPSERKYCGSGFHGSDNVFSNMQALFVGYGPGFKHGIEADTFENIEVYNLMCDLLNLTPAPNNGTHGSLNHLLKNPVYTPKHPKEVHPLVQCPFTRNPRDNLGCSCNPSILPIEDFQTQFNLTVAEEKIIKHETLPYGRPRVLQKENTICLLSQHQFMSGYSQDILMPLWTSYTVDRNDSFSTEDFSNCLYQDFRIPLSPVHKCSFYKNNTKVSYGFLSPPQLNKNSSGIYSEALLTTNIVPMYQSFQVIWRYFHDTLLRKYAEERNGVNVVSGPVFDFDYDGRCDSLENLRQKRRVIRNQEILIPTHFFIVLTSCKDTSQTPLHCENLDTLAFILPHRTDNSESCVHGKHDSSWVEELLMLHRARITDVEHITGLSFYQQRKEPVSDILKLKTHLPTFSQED
Procedure: ENPP1 is a transmembrane glycoprotein that hydrolyzes nucleotides and nucleotide derivatives with the formation of nucleotide-5′-monophosphates. ENPP1 hydrolyzes artificial phosphoric acid ester thymidine 5′monophosphate p-nitrophenyl ester (TMP-pNP) to nucleotide-5′-monophosphate and p-nitrophenol, which is a chromogenic product.
Load into a well with 20 ng of human soluble ENPP1 in 50 μL and incubate at room temperature with 25 μL inhibitor solution (4× Final Concentration) for 30 mins. Then, add 25 μL 2 mM TMP solution (2× Final Concentration) into the well, Incubate at RT for 1 hour.
(§1) The percent inhibition at each compound is calculated as follows: % inhibition=(ODMAX−ODCOMPOUND)/(ODMAX−ODMIN)*100. (MAX: absence of ENPP1 inhibitors control, MIN: blank control.)
The IC50 values for percent inhibition versus compound concentration were determined by fitting the inhibition curves using a four-parameter variable slope model in GraphPad Prism® 8.

human soluble ENPP1 [2] = target: T1, human soluble ENPP1; assay: ENPP1 activity assay using p-Nitrophenyl-5′-AMP as a substrate; type: biochemical
Procedure: AMP-pNP can be used as substrate of ENPP-1. Its hydrolysis products were nucleotide-5′-monophosphate and p-nitrophcnol, which is also a chromogenic product. The amount of p-nitrophenol product formed is measured using its absorbance at 405 nm, which is directly proportional to enzyme activity.
Load into a well with […] of human soluble ENPP1 in 50 μL and incubate at room temperature with 25 μL inhibitor solution (4× Final Concentration) for 30 mins prior adding 25 μL 3 mM AMP solution (2× Final Concentration) into the well, Incubate at RT for 1 hour. The amounts of released p-nitrophenolate were measured by reading OD value at 405 nm.
as §1
(§2) The IC50 values for percent inhibition versus compound concentration are determined by fitting the inhibition curves using a four-parameter variable slope model in GraphPad Prism® 8.

ENPP-1, MDA-MB-231 cells = target: T2, ENPP-1, MDA-MB-231 cells (Homo sapiens, UniProt P22413); assay: cell-based; details: for inhibition at 20 µM: MDA-MB-231, read-out: % Inhibition (at 20 μM)
T2 sequence (P22413 1-925): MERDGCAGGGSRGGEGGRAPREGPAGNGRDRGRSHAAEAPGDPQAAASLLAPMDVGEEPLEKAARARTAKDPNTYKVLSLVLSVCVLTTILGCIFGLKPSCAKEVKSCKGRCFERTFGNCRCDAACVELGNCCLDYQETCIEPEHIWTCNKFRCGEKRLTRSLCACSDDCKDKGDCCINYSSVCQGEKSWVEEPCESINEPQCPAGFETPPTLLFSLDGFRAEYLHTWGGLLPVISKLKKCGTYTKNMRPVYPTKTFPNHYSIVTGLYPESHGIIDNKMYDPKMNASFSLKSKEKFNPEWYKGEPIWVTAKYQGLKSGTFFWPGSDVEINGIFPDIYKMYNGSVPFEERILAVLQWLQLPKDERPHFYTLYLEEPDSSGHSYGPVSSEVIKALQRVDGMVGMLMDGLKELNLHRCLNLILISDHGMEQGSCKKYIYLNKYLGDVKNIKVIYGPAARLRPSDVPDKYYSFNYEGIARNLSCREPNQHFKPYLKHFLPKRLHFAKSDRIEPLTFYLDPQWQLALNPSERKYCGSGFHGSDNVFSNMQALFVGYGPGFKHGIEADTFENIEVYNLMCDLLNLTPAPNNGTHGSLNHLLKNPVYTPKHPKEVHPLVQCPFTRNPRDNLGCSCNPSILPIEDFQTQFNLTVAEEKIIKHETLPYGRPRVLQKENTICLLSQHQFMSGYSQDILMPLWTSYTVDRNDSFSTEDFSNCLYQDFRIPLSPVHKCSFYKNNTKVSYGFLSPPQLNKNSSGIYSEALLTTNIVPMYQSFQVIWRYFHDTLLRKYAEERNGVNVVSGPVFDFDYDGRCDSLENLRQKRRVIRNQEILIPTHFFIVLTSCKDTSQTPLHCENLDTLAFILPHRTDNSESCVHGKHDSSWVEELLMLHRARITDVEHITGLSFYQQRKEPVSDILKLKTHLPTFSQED
Procedure: ENPP-1 were mainly expressed on the surface of cell membrane where it hydrolytes 2′3′-cGAMP to generate 5′-GMP and 5′-AMP. ENPP-1 also has the ability to hydrolyzes artificial phosphoric acid ester TMP-pNP to nucleotide-5′-monophosphate and p-nitrophcnol there, which is a chromogenic product.
8 point of different concentrations of each inhibitor were prepared with the final assay concentrations starting at 20 μM. 3× series dilution by DMEM medium without FBS was applied. Prior to adding inhibitors, 75000 cells per well were incubated at 37° C., 5% CO2 in DMEM for 24 hours. After removing the supernatant medium, 50 μL inhibitor solution was added into each well with cultured cells and incubate at 37° C., 5% CO2 for 60 minutes.
as §2

| Structure (SMILES) | IC50 (human soluble ENPP1 [1]) [nM] | IC50 (human soluble ENPP1 [2]) [nM] | other results |
| --- | --- | --- | --- |
| COc1cc2ncc3nnc(Cc4ccc(S(N)(=O)=O)cc4)n3c2cc1OC [Compound 44, 4-((7,8-dimethoxy-2λ^2,10λ^4-[1,2,4]triazolo[4,3-a]quinoxalin-1-yl)methyl)benzenesulfonamide] | 65 |  |  |
| COc1cc2ncc3nnc(-c4ccc(CNS(N)(=O)=O)cc4)n3c2cc1OC [Compound 51, 4-(7,8-dimethoxy-[1,2,4]triazolo[4,3-a]quinoxalin-1-yl)benzyl sulfamide] | 884 |  |  |
| COc1nc2nc(C)c3nc(C)n(Cc4ncc(S(N)(=O)=O)cn4)c3c2cc1Cl [Compound 91b, 2-((6-chloro-7-methoxy-2,4-dimethyl-1H-imidazo[4,5-c][1,8]naphthyridin-1-yl)methyl)pyrimidine-5-sulfonamide] | 62 | 199 |  |
| COc1cc2ncc3ncn([C@@H](C)c4ccc(S(N)(=O)=O)cc4)c3c2cc1OC [Compound 11b, (S)-4-(1-(7,8-dimethoxy-1H-imidazo[4,5-c]quinolin-1-yl)ethyl)benzenesulfonamide] | 196 |  |  |
| COc1cc2ncc3ncn(Cc4ccc(S(N)(=O)=O)cc4)c3c2cn1 [Compound 50, 4-((7-methoxy-1H-imidazo[4,5-c][1,6]naphthyridin-1-yl)methyl)benzenesulfonamide] | 28 |  |  |
| COc1cc2ncc3c(c2cc1OC)n(Cc1ccc(S(N)(=O)=O)cc1)c(=O)n3C [Compound 2, 4-((7,8-dimethoxy-3-methyl-2-oxo-2,3-dihydro-1H-imidazo[4,5-c]quinolin-1-yl)methyl)benzenesulfonamide] | 10 |  |  |
| COc1cc2ncc3ncn(Cc4cccc(S(N)(=O)=O)c4)c3c2cc1OC [Compound 37, 3-((7,8-dimethoxy-1H-imidazo[4,5-c]quinolin-1-yl)methyl)benzenesulfonamide] | 165 |  |  |
| COc1cc2ncc3nnn(Cc4ccc(S(N)(=O)=O)cc4)c3c2cc1OC [Compound 13, 4-((7,8-dimethoxy-1H-[1,2,3]triazolo[4,5-c]quinolin-1-yl)methyl)benzenesulfonamide] | 4.3 | 33 |  |
| COc1ccc2c(c1)ncc1[nH]c(=O)n([C@H](C)c3ccc(S(N)(=O)=O)cc3)c12 [Compound 8, (R)-4-(1-(7-methoxy-2-oxo-2,3-dihydro-1H-imidazo[4,5-c]quinolin-1-yl)ethyl)benzenesulfonamide] | 0.3 |  |  |
| COc1ccc2c(ncc3[nH]c(=O)n(Cc4c(F)cc(C(N)=O)cc4F)c32)n1 [Compound 109, 3,5-difluoro-4-((7-methoxy-2-oxo-2,3-dihydro-1H-imidazo[4,5-c][1,8]naphthyridin-1-yl)methyl)benzamide] |  |  | IC50 (ENPP-1, MDA-MB-231 cells): > 20000 nM; inhibition at 20 µM (ENPP-1, MDA-MB-231 cells): 11% |
| CCCC(=O)NS(=O)(=O)c1cc(F)c(Cn2c(=O)[nH]c3cnc4nc(OC)ccc4c32)c(F)c1 [Compound 106, sodium butyryl((3,5-difluoro-4-((7-methoxy-2-oxo-2,3-dihydro-1H-imidazo[4,5-c][1,8]naphthyridin-1-yl)methyl)phenyl)sulfonyl)amide] |  |  | IC50 (ENPP-1, MDA-MB-231 cells): > 6700 nM; inhibition at 20 µM (ENPP-1, MDA-MB-231 cells): 57% |
| COc1ccc2c(ncc3[nH]c(=O)n(Cc4ccc(CS(N)(=O)=O)cc4)c32)n1 [Compound 128, (4-((7-Methoxy-2-oxo-2,3-dihydro-1H-imidazo[4,5-c][1,8]naphthyridin-1-yl)methyl)phenyl)-methanesulfonamide] |  |  | inhibition at 20 µM (ENPP-1, MDA-MB-231 cells): 82% |
| COc1cc2ncc3ncn(CC4CCN(S(N)(=O)=O)CC4)c3c2cc1OC [Compound 32, 4-((7,8-dimethoxy-1H-imidazo[4,5-c]quinolin-1-yl)methyl)piperidine-1-sulfonamide] | 7.7 |  |  |

Second part, led by results:

| IC50 (human soluble ENPP1 [1]) [nM] | IC50 (human soluble ENPP1 [2]) [nM] | Structure (SMILES) | other results |
| --- | --- | --- | --- |
| 0.81 | 3.2 | COc1ccc2c(ncc3nc(C4CN(S(C)(=O)=O)C4)n(Cc4ccc(S(N)(=O)=O)c(F)c4)c32)n1 [Compound 86, 2-fluoro-4-((7-methoxy-2-(1-(methylsulfonyl)azetidin-3-yl)-1H-imidazo[4,5-c][1,8]naphthyridin-1-yl)methyl)benzenesulfonamide] | IC50 (ENPP-1, MDA-MB-231 cells): 620 nM; inhibition at 20 µM (ENPP-1, MDA-MB-231 cells): 80% |
| 38 | 141 | COc1ccc2c(ncc3[nH]c(=O)n(Cc4c(F)cc(NS(N)(=O)=O)cc4F)c32)n1 [Compound 138] |  |
| 0.1 | 0.19 | COc1ccc2c(ncc3ncn(Cc4c(F)cc(S(N)(=O)=O)cc4F)c32)n1 [Compound 129, 3,5-difluoro-4-((7-methoxy-1H-imidazo[4,5-c][1,8]naphthyridin-1-yl)methyl)benzenesulfonamide] |  |
| 1.7 | 7.2 | COc1ccc2c(ncc3nc(OC)n(Cc4ccc(S(N)(=O)=O)c(F)c4)c32)n1 [Compound 78, 4-((2,7-dimethoxy-1H-imidazo[4,5-c][1,8]naphthyridin-1-yl)methyl)-2-fluorobenzenesulfonamide] |  |
| 8.8 |  | COc1ccc2c(ncc3[nH]c(=O)n(Cc4cc(F)c(S(N)(=O)=O)c(F)c4)c32)n1 [Compound 100, 2,6-difluoro-4-((7-methoxy-2-oxo-2,3-dihydro-1H-imidazo[4,5-c][1,8]naphthyridin-1-yl)methyl)benzenesulfonamide] |  |
|  | 0.16 | COc1ccc2c(ncc3nc(C)n(Cc4c(F)cc(S(N)(=O)=O)cc4F)c32)n1 [Compound 130, 3,5-difluoro-4-((7-methoxy-2-methyl-1H-imidazo[4,5-c][1,8]naphthyridin-1-yl)methyl)benzenesulfonamide] | IC50 (human soluble ENPP1 [1]; substrate TMP-pNP, 20 ng human soluble ENPP1, Tris buffer pH 9.5, read-out: TMP-pNP (IC50)): 0.16 nM |
| 43 | 79 | CNS(=O)(=O)c1cc(F)c(Cn2c(=O)[nH]c3cnc4nc(OC)ccc4c32)c(F)c1 [Compound 107, 3,5-difluoro-4-((7-methoxy-2-oxo-2,3-dihydro-1H-imidazo[4,5-c][1,8]naphthyridin-1-yl)methyl)-N-methylbenzenesulfonamide] |  |
